Laboratory results as given in patent US7897773B2, “Urea derivatives of tropane, their preparation and their therapeutic application” (Sanofi-Aventis, priority 2006, dated 2011).
“And” between values parts separate entries of the source, which are not always exact repeats. Identical values can stand only once. Counter-ions that a name gives are not always drawn. Like-named read-outs stand apart in the source and are kept apart here. Each block holds one compound with its values, some of them ahead of it.

Legend:
11beta-HSD1 enzyme = target: T1, 11beta-HSD1 enzyme (Homo sapiens, UniProt P28845); assay: SPA (Scintillation Proximity Assay) of 11beta-HSD1 inhibition, 384 well format; type: biochemical
T1 construct: made in house; host or cells: Saccharomyces cerevisiae
Protocol: The compounds according to the invention were the subject of pharmacological tests for determining their inhibitory activity on the 11beta-HSD1 enzyme which is an enzyme involved in lipid metabolism or glucose metabolism.
These tests consisted in measuring the in vitro inhibitory activity of the compounds of the invention by virtue of an SPA (Scintillation Proximity Assay) in 384 well format. The recombinant 11beta-HSD1 protein was produced in the yeast S. cerevisiae. The reaction was carried out by incubating the enzyme in the presence of ^3H-cortisone and NADPH, in the absence or in the presence of an increasing concentration of inhibitor. SPA beads coupled to an anti-mouse antibody, pre-incubated with an anti-cortisol antibody, made it possible to measure the amount of cortisol formed during the course of the reaction.
The inhibitory activity with respect to the 11beta-HSD1 enzyme is given by the concentration which inhibits 50% of the activity of 11beta-HSD1 (IC50).

11βHSD1 in the eyes = target: T2, 11βHSD1 in the eyes (Homo sapiens, UniProt P28845); conditions: normal volunteers; after seven days of treatment; cited from earlier work
T2 construct: The functional activity of 11βHSD1 in the eyes has been evaluated by studying the action of carbenoxolone in normal volunteers; host or cells: ocular tissue of human volunteers (in vivo)

[1] = recombinant 11beta-HSD1 produced in yeast S. cerevisiae, 3H-cortisone and NADPH, read-out: concentration which inhibits 50% of the activity of 11beta-HSD1 (IC50)

T1 sequence (P28845 whole entry, species assumed): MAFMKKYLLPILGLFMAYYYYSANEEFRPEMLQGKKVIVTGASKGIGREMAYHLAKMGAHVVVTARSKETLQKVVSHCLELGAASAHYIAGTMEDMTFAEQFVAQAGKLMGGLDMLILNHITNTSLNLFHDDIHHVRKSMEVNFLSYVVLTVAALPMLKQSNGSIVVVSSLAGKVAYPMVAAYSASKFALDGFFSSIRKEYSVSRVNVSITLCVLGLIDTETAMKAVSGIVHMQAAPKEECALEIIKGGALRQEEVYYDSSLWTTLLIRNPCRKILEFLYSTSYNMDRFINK
T2 sequence (P28845 whole entry): as the sequence (P28845 whole entry, species assumed) above

Compound: O=C(N1CCCc2ccccc21)N1C2C=C(c3cccnc3F)CC1CC2 (centres unmarked) [Compound 13, (3,4-dihydro-2H-quinolin-1-yl)-[3-(2-fluoropyridin-3-yl)-8-azabicyclo[3.2.1]oct-2-en-8-yl]methanone]
IC50 (11beta-HSD1 enzyme): 122 nM

melting point: 98 to 99 °C
Compound: O=C(N1CCCc2ccccc21)N1C2CCC1CC(c1ccc(F)nc1)C2 (centres unmarked) (as salt: HCl)

Compound: CC1(C)[C@@H](OC(=O)CCC(=O)O)CC[C@]2(C)[C@H]3C(=O)C=C4[C@@H]5C[C@@](C)(C(=O)O)CC[C@]5(C)CC[C@@]4(C)[C@]3(C)CC[C@@H]12 [carbenoxolone]
IOP is reduced by (11βHSD1 in the eyes): 18%

Compound: O=C(N1CCCc2ccccc21)N1C2CCC1CC(c1cccnc1)C2 (centres unmarked) (as salt: HCl) [Compound 4, 1-[(3-pyridin-3-yl-8-azabicyclo[3.2.1]oct-8-yl)carbonyl]-1,2,3,4-tetrahydroquinoline Hydrochloride]
melting point: 218 to 220 °C and 218 to 222 °C

Compound: O=C(N1CCCc2ccccc21)N1C2CCC1CC(c1cccnc1)C2 (centres unmarked) [Compound 4, 1-[(3-pyridin-3-yl-8-azabicyclo[3.2.1]oct-8-yl)carbonyl]-1,2,3,4-tetrahydroquinoline Hydrochloride]
IC50 (11beta-HSD1 enzyme): 19 nM

Compound: O=C(N1CCCc2ccccc21)N1C2CCC1CC(c1ccccc1)C2 (centres unmarked) [Compound 7, (3,4-dihydro-2H-quinolin-1-yl)-(3-phenyl-8-azabicyclo-[3.2.1]oct-8-yl)methanone]
melting point: 133 to 134 °C
IC50 (11beta-HSD1 enzyme; [1]): 4 nM

Compound: O=C(N1CCCc2ccccc21)N1C2C=C(c3cccc4[nH]ccc34)CC1CC2 (centres unmarked) [Compound 28, (3,4-dihydro-2H-quinolin-1-yl)-[3-(1H-indol-4-yl)-8-azabicyclo[3.2.1]oct-2-en-8-yl]methanone]
IC50 (11beta-HSD1 enzyme; [1]): 190 nM
